In PubChem BioAssay (NCI):
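Grown in 96-well plates, cells were treated for 48 hours with each compound at five concentrations. Insufficient inhibition: endpoint recorded as highest concentration tested. GI50 is the concentration that inhibits growth by half. TGI: total growth inhibition.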

Columns and labels:
Test in all cases: DTP human tumour cell line panel, 48 h
RPMI-8226 leukemia = tested on: RPMI-8226 leukemia
SF-268 CNS = tested on: SF-268 CNS
ACHN renal = tested on: ACHN renal
U251 CNS = tested on: U251 CNS
A549 NSCLC = tested on: A549 NSCLC
786-0 renal = tested on: 786-0 renal
M14 melanoma = tested on: M14 melanoma
COLO 205 colon = tested on: COLO 205 colon
SF-539 CNS = tested on: SF-539 CNS
HOP-92 NSCLC = tested on: HOP-92 NSCLC

SMILES | GI50 (RPMI-8226 leukemia) [µM] | TGI (RPMI-8226 leukemia) [µM] | GI50 (SF-268 CNS) [µM] | TGI (SF-268 CNS) [µM] | GI50 (ACHN renal) [µM] | TGI (ACHN renal) [µM] | GI50 (U251 CNS) [µM] | TGI (U251 CNS) [µM] | GI50 (A549 NSCLC) [µM] | TGI (A549 NSCLC) [µM] | GI50 (786-0 renal) [µM] | TGI (786-0 renal) [µM] | GI50 (M14 melanoma) [µM] | TGI (M14 melanoma) [µM] | GI50 (COLO 205 colon) [µM] | TGI (COLO 205 colon) [µM] | GI50 (SF-539 CNS) [µM] | TGI (SF-539 CNS) [µM] | TGI (HOP-92 NSCLC) [µM]
O=C(N/N=C/c1ccncc1)c1ccc(C(F)(F)F)nc1Nc1cccc(C(F)(F)F)c1 | 0.514 | 4.05 | 2.55 | 7.36 | 3.46 | 12.1 | 2.47 | 11.4 | 3.12 | 10.9 | 1.29 | 7.55 | 1.34 | 4.03 | 2.57 | 7.51 | 2.6 | 9.5 | 
CC(=O)n1cc(CC(C)O)c(=O)[nH]c1=O (stereo not drawn) |  | > 100 |  | > 100 |  | > 100 |  | > 100 |  | > 100 |  | > 100 |  | > 100 |  | > 100 |  | > 100 | 
Cc1ccc(S(=O)(=O)Nc2cccc(C)c2C)cc1 |  | > 100 |  | > 100 |  |  |  | 79.9 |  | > 100 |  | > 100 |  | > 100 |  | > 100 |  | > 100 | > 100
O=S1c2ccccc2N=C(c2ccc3ccccc3c2)CC1c1ccccc1F (stereo not drawn) |  | > 100 |  | > 100 |  | > 100 |  | > 100 |  | > 100 |  | > 100 |  | > 100 |  | > 100 |  | > 100 | 
NC(=O)c1ccccc1NC(=O)C(=O)Nc1n[nH]c(N)n1 |  | > 100 |  |  |  | > 100 |  | > 100 |  | > 100 |  | > 100 |  | > 100 |  | > 100 |  | > 100 | 
O=NNc1ccc(Sc2ccc3ccccc3c2)cn1 |  |  |  | > 100 |  | > 100 |  | > 100 |  | > 100 |  | > 100 |  | 60.2 |  | > 100 |  | > 100 | 
CCOc1ccc(/C=N\N2C(=O)c3ccccc3C2=O)cc1 |  | > 100 |  | > 100 |  | > 100 |  |  |  | > 100 |  | > 100 |  | > 100 |  |  |  | > 100 | > 100
CC(N)CN.CC(N)CN.[Cl-].[O]=[Os+2]=[O] (stereo not drawn) | 40.3 | > 100 | 77.3 | > 100 |  |  | > 100 | > 100 | > 100 | > 100 | 64.5 | > 100 | > 100 | > 100 | 70.2 | > 100 | > 100 | > 100 | 
C=C(CS(=O)(=O)c1ccccc1)C(=O)OCC |  |  |  | 40 |  | 29.5 |  | 30.7 |  | 37.1 |  | 31.9 |  | 24.2 |  | 38.9 |  | 33.2 | 40
COc1cc(C2CC(=O)c3c(C)nn(-c4nc5ccccc5[nH]4)c3C2)cc(OC)c1OC (stereo not drawn) | > 100 | > 100 | 8.01 | > 100 |  |  |  |  |  |  | 3.34 | > 100 | > 100 | > 100 | > 100 | > 100 |  |  | 
CN(C(=O)C12C3C4C1C1C2C3C41C(=O)N(C)C(C)(C)C)C(C)(C)C (stereo not drawn) |  |  |  | > 50 |  | > 50 |  | > 50 |  | > 50 |  | > 50 |  | > 50 |  | > 50 |  | > 50 | > 50
